From PubChem BioAssay AID1259347
Active and inactive are the calls of the source.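 Rule for the calls: active = compounds raising absorbance, a cell survival measure, over 1.5-fold at the top dose, rising with dose; inactive = the rest.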

Assays:
[1] = test system: HCT116 Ad-hTR-mut infected, survival, MTT 4 d; test: survival after telomere uncapping, modulators, dose response, cell-based, HCT116, Ad-hTR-mut infection, MTT (AID 1259347)
[2] = as above; conditions: HCT116 Ad-hTR-mut infected, survival, MTT 4 d; measured here: second series; at 10 µM; stronger effect = higher value

| Compound | EC50 [1] | fold survival [2] |
| --- | --- | --- |
| Cc1nc2cc(-c3ccc(Br)cc3)nn2c(C)c1CCC(=O)O | < 10 µM | 1.44 |
| C/C(=C\C(=O)Nc1ccccc1C(=O)O)c1ccc2ccccc2c1 | > 0.1 µM (inactive) | – |
| Cc1ccc(C(=O)Nc2ccc(S(=O)(=O)O)c3cc(S(=O)(=O)O)cc(S(=O)(=O)O)c23)cc1NC(=O)c1cccc(NC(=O)Nc2cccc(C(=O)Nc3cc(C(=O)Nc4ccc(S(=O)(=O)O)c5cc(S(=O)(=O)O)cc(S(=O)(=O)O)c45)ccc3C)c2)c1 | < 10 µM | 2.65 |
